For one assay, the system named is palmitate-loaded cells. As to the kind of experiment: Fat clearance from palmitate-loaded cells. It counts as cell-based. The settings on record: in vitro.
Assay [1] has as its target T1, HNF4α (Homo sapiens, UniProt P41235).
T1 sequence (P41235 1-474): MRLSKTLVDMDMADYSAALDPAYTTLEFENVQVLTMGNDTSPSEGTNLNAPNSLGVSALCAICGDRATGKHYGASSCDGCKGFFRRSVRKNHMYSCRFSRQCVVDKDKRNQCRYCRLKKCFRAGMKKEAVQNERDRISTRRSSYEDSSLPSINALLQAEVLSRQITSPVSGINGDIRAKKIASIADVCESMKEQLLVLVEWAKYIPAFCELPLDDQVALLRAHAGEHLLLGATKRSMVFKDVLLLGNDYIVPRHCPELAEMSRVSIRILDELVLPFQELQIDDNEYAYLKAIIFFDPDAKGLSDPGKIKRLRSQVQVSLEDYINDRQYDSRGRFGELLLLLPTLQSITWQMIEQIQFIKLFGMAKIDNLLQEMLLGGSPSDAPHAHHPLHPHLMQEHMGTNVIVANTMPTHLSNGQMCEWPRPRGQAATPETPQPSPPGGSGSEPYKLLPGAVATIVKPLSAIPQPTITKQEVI
Briefly: Cell-based human insulin promoter reporter assay sensitive to HNF4α activity. From the text:
HNF4α is a nuclear receptor transcription factor that controls the expression of downstream genes that are important in multiple aspects of cellular metabolism. The classical view of HNF4α has been that its ligand binding pocket (LBP) is constitutively occupied by a fatty acid that plays a structural rather than regulatory role. However, it has been shown recently that the fatty acids in the HNF4α LBP are exchangeable in the context of full length HNF4α, particularly inside the cell. […] Using the assay in high-throughput screening, it was discovered HNF4α antagonists and more recently agonists. […] Previously, it was shown that intraperitoneal (IP) administration of NCT reversed hepatic steatosis in obese mice fed a high fat diet through a previously unsuspected pathway involving regulation by HNF4α of dihydroceramide synthesis.

Assay [2] concerns the target T1, HNF4α. Particulars: cited from earlier work.

Regarding `COc1cc(/C=C/C(=O)NCCc2ccc(O)cc2)ccc1O` [NFT, N-transferuloyltyramine], the “fat clearance from palmitate-loaded cells” value in the assay with palmitate-loaded cells is recorded as “induced fat clearance”. In addition, the HNF4α agonist activity result on HNF4α [1] is “strong HNF4α agonists”. Turning to `CCN(CCCc1ccccc1)CCCc1ccccc1` [alverine], the “HNF4α activator activity of known drugs” value on HNF4α [2] is on record as “weak HNF4α activators”.

In the case of `CC(Cc1cccc(C(F)(F)F)c1)NCCOC(=O)c1ccccc1` (stereo not shown) [benfluorex], on HNF4α [2], the “HNF4α activator activity of known drugs” value is reported as “weak HNF4α activators”.

Values taken from US20240374546A1, “USES AND METHODS FOR PROMOTING INCREASED MITOCHONDRIAL MASS AND FUNCTION” (Brightseed, Inc., priority 2022, published 2024).
